In US20090239860A1, “NOVEL BENZOFURAN DERIVATIVE, MEDICINAL COMPOSITION CONTAINING THE SAME, AND USES OF THESE” (priority 2004, published 2009):

How the values were obtained:
[1] = system: Haloperidol-induced catalepsy in rats; assay: Haloperidol-induced catalepsy in rats (horizontal bar test); format: in vivo, rat; conditions: male rats; compound 10 mg/kg orally in PEG400 2 hours before measurement; 5 hours after 1 mg/kg i.p. haloperidol; maximum 180 seconds (control 180.0)
Method: Haloperidol-Induced Catalepsy in Rats
The effect of a compound on drug-induced catalepsy in rats was evaluated. Parkinson's disease is a movement disorder reflecting a decline in striatal dopamine due to the degeneration of dopaminergic neuron arising from the sbstantia nigra. When haloperidol, a blocker of dopamine D2 receptor is administered in rats, the drug induces catalepsy which is considered as one of the Parkinson's disease-like symptoms since haloperidol blocks the neurotransmission of dopaminergic neuron. Male rats (Crj: CD(SD)IGS, bodyweight: 210-260 g, Charles River Japan, Inc.) were used for the experiments. Three to five rats for each group were tested for catalepsy 5 hours after intraperitoneal administration of 1 mg/kg haloperidol (Serenace (registered mark); Dainippon Pharma), a dopamine D2 antagonist. Catalepsy was measured using the horizontal bar test (Morelli and Chiara, “Eur. J. Pharmacol.”, vol. 117, p. 179-185 (1985)). A compound (10 mg/kg) was dissolved in PEG400 and administered orally 2 hours prior to the measurement of catalepsy. PEG400 was also administered orally to the rats for the control group. The front feet of the rats were placed on a horizontal bar (3 mm in diameter) suspended 10-12 cm above a platform and their rear feet were placed on the platform. The degree of catalepsy produced in the rats was measured by how long it took for their front feet to remove themselves from the bar. A maximum of 180 seconds was allowed.

[2] = molecular target: T1, human adenosine A2A receptor (Homo sapiens, UniProt P29274); assay: Measurement of antagonistic action for human adenosine A2A receptor (inhibition of NECA-induced cAMP production in transfected CHO-K1 cells); format: cell-based; conditions: human adenosine A2A receptor-expressed CHO-K1 cells, Ki from IC50 and Km for NECA
T1 construct: expressed in transfected cells; host or cells: CHO-K1 (Chinese hamster ovary-K1), transient transfection with Lipofectamine 2000
T1 sequence (P29274 whole entry): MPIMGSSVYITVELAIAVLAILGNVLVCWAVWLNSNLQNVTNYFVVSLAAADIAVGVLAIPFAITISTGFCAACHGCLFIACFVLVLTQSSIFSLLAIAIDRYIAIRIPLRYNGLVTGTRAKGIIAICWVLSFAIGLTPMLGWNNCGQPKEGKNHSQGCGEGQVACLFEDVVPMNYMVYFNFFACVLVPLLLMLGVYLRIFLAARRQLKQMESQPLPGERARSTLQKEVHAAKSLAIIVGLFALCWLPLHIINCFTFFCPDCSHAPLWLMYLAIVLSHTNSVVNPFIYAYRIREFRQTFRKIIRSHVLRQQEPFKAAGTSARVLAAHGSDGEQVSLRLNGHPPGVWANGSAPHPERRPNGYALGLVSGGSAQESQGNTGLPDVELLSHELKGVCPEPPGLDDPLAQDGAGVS
Method: Measurement of Antagonistic Action for Human Adenosine A2a Receptor
1) Preparation of Human Adenosine A2a Receptor-Expressed Cells
When Chinese hamster ovary-K1 (CHO-K1) cells were grown to subconfluence, they were treated with trypsin and suspended in D-MEM/F-12 medium (Invitrogen) including 10% fetal bovine serum (Sankojunyaku). The expression vector of human adenosine A2A receptor prepared in OPTI-MEM I (Invitrogen) and the transfection reagent of Lipofectamine 2000 (Invitrogen) were added to the cell suspension, and those cells were inoculated in poly-D-lysine-coated 96-well plates (5×10^4 cells/well). After incubating the plates for 24-30 hours at 37° C. in a humidified atmosphere with 5% CO2, they were used for the subsequent assays.
2) Measurement of the Inhibitory Effect on Human Adenosine A2a Receptor Activity
A test compound was dissolved in dimethyl sulfoxide (DMSO) and the resulting solution was added to D-MEM/F-12 medium supplemented with 2.5 unit/mL adenosine deaminase (Carbiochem) and 30 μM rolipram (Sigma), a phosphodiesterase inhibitor to prepare a solution of the test compound. Adenosine deaminase was used for the inactivation of adenosine derived from the cells.
The human adenosine A2A-expressed cells inoculated in the 96-well plates were washed twice with 150 μL/well of D-MEM/F-12 medium and a 50-μL aliquot of the test compound solution was then added to each well of the plates. After incubating the cells for 10 minutes at 37° C. in a humidified atmosphere with 5% CO2, a 50-μL aliquot of 1.2 nM 5′-N-ethylcarboxyamideadenosine (NECA; Sigma) including 2.5 unit/mL adenosine deaminase and 30 μM rolipram was added to each well of the plates and incubated for 25 minutes at 37° C. in a humidified atmosphere with 5% CO2. Stopping the reaction and the subsequent measurement of cAMP were performed by use of a cAMP enzyme-linked immunosorbent assay kit (Applied Biosystem). The chemoluminescence was measured by a Microplate Luminometer TR717 (Applied Biosystem). The experiments were carried out in duplicate wells.
Inhibitory rate of a test compound for NECA-induced cAMP production was found by the following formula:
Inhibitory rate (%)=[1−{(cAMP level with a test compound and NECA)−(cAMP level without a test compound and NECA)}/{(cAMP level with NECA)−(cAMP level without a test compound and NECA)}]×100
Using a Km value for NECA found by the measurement in the same plate as that of test compounds, an inhibitory constant Ki was found by the following formula: […]

Row | Structure (SMILES) | Ki [2] | Duration of catalepsy [1]
1 | COc1ccc2c(NC(=O)c3ccc(F)cc3)c(C(N)=O)oc2c1 [Compound 1-16] | 0.9 nM | 116.4 s
2 | NC(=O)c1oc2ccc(F)cc2c1NC(=O)C1CC1 [Compound 1-1, 3-Cyclopropanecarbonylamino-5-fluorobenzofuran-2-carboxamide] | 8.5 nM | 
3 | NC(=O)c1oc2ccc(Cl)cc2c1NC(=O)C1CC1 [Compound 1-2, 3-Cyclopropanecarbonylamino-5-chlorobenzofuran-2-carboxamide] | 4.1 nM | 91.6 s
4 | NC(=O)c1oc2c(F)cc(F)cc2c1NC(=O)C1CC1 [Compound 1-155] | 8.1 nM | 38.3 s
5 | NC(=O)c1oc2ccc(F)cc2c1NC(=O)COc1ccc(Cl)cc1 [Compound 1-145] | 2.7 nM | 
6 | CCc1ccc(C(=O)Nc2c(C(N)=O)oc3ccc(F)cc23)o1 [Compound 1-121] | 0.8 nM | 48.2 s
7 | NC(=O)c1oc2c(F)cc(F)cc2c1NC(=O)c1ccc(CN2CCN(Cc3ccc4c(c3)OCO4)CC2)o1 [Compound 2-138] | 2 nM | 
8 | COc1ccc2c(NC(=O)c3ccc(CSc4nccn4C)cc3)c(C(N)=O)oc2c1 [Compound 2-7] | 8.6 nM | 
9 | NC(=O)c1oc2c(F)cc(F)cc2c1NC(=O)c1ccc(CN2CCN(Cc3ccccc3)CC2)o1 [Compound 2-129] | 1.6 nM | 
10 | NC(=O)c1oc2cc(F)ccc2c1NC(=O)c1ccc(Oc2ccccc2)nc1 [Compound 1-138] | 4.5 nM | 
11 | CC(O)c1ccc(C(=O)Nc2c(C(N)=O)oc3ccc(F)cc23)o1 (stereo not shown) [Compound 6-2, 5-Fluoro-3-[5-(1-hydroxyethyl)furan-2-carbonyl]-aminobenzofuran-2-carboxamide] | 1.1 nM | 
12 | COc1ccc2c(NC(=O)c3cccc(CN4CCN(c5ccccc5)CC4)c3)c(C(N)=O)oc2c1 [Compound 2-1, 6-Methoxy-3-[3-(4-phenylpiperazin-1-ylmethyl)benzoylamino]-benzofuran-2-carboxamide] | 8 nM | 
13 | CC(C)(C)OC(=O)N1CCN(Cc2ccc(C(=O)Nc3c(C(N)=O)oc4c(F)cc(F)cc34)o2)CC1 [Compound 2-142, tert-butyl 4-[5-(2-carbamoyl-5,7-difluoro-benzofuran-3-ylcarbamoyl)furan-2-ylmethyl]piperazine-1-carboxylate] | 2 nM | 
14 | COCC(=O)Nc1c(C(N)=O)oc2cc(OC)ccc12 [Compound 1-141] | 9.3 nM | 
15 | NC(=O)c1oc2c(F)cc(F)cc2c1NC(=O)C1CCC1 [Compound 1-161] | 7 nM | 
16 | COc1ccc(C(=O)Nc2c(C(N)=O)oc3c(OC)cc(F)cc23)cc1 [Compound 1-213] | 2.1 nM | 

Second part, led by results:

Row | Ki [2] | Structure (SMILES) | Duration of catalepsy [1]
17 | 0.5 nM | CN1CCN(C(=O)c2cccc(C(=O)Nc3c(C(N)=O)oc4c(F)cc(F)cc34)c2)CC1 [Compound 1-275] | 
18 | 6.5 nM | NC(=O)c1oc2cc(F)ccc2c1NC(=O)c1ccc2c(c1)OCO2 [Compound 1-91] | 
19 | 9.3 nM | NC(=O)c1oc2ccc(Cl)cc2c1NC(=O)c1ccco1 [Compound 1-108] | 
20 | 9.2 nM | NC(=O)c1oc2cc(Cl)ccc2c1NC(=O)C1CC1 [Compound 1-153] | 
21 | 1.9 nM | Cc1ccc(C(=O)Nc2c(C(N)=O)oc3c(F)cc(F)cc23)o1 [Compound 1-119] | 
22 | 4.6 nM | NC(=O)c1oc2c(F)cc(F)cc2c1NC(=O)Cc1ccccc1 [Compound 1-249] | 
23 | 3.2 nM | COc1ccc2c(NC(=O)c3ccc(-c4ccccc4)o3)c(C(N)=O)oc2c1 [Compound 1-133] | 
24 | 2.2 nM | NC(=O)c1oc2ccc(F)cc2c1NC(=O)COCc1ccccc1 [Compound 1-150] | 
25 | 3.3 nM | COc1cc(F)cc2c(NC(=O)C3CC3)c(C(N)=O)oc12 [Compound 1-159] | 
26 | 2.7 nM | NC(=O)c1oc2c(F)cc(F)cc2c1NC(=O)c1ccco1 [Compound 1-109] | 
27 | 6.4 nM | Cc1cccc(C(=O)Nc2c(C(N)=O)oc3ccc(F)cc23)c1 [Compound 1-36] | 
28 | 6.5 nM | COc1ccc2c(NC(=O)c3cccc(F)c3)c(C(N)=O)oc2c1 [Compound 1-15] | 
29 | 9.8 nM | NC(=O)c1oc2c(Cl)cc(F)cc2c1NC(=O)C1CC1 [Compound 1-156] | 
30 | 1.2 nM | CCc1ccc(C(=O)Nc2c(C(N)=O)oc3c(F)cc(F)cc23)o1 [Compound 1-125] | 
